A short description of series [1]: S(+)-Ibuprofen plasma concentrations and bioavailability parameters after single oral dose, cross-over (Examples 6-10, HPLC).
Description: Each subject was apparently healthy, especially as lap as the Renal, hepatic and hematopoietic functions were concerned.
For the trial, a cross-over design was adopted: each subject received both preparations in two treatment sessions carried out in two different weeks randomizing the order of the administration.
Further, samples of venous blood were withdrawn at 5, 10, 15, 30, 45, 60, 90, 120, 240 and 480 minutes after the treatment. Plasma was then prepared by centrifugation and preserved at -20° C. until the analysis.
The analytical determination of the active ingredient in the plasma samples was carried out by HPLC method as described hereinafter. Chromatographic conditions:
Apparatus: JASCO BIP-1 with U.V. detector UVI DEC-100 v
Column: Chiral AGP, 100×4.0 mm, 5 μm (Chron Tech) with a precolumn Chiral AGP 10×3.0 mm (Chron Tech) […]
The following parameters were calculated:
the area under curve of S(+)-Ibuprofen plasma concentration from time "zero" to "infinite" (AUCtot) was calculated by the following formula: AUCtot =AUCo→480 +AUC480→- wherein AUC480- =concentration at 480 minutes/Ke. and Ke =elimination constant
mean peak time (tmax), expressed as minutes, was obtained from the average of each peak time
the mean peak of maximum plasma concentration (Cmax), expressed as μg/ml, was calculated by the average of each concentration peak value.
The conditions of series [2]: in words, versus Ibuprofen (and, EP 424028, Ibuprofen salts and S(+)-Ibuprofen); cited from earlier work.

The structures appear in SMILES notation. Structures can show the parent of a compound that is named as a salt.

With `CC(C)Cc1ccc([C@H](C)C(=O)O)cc1` [S(+)-Ibuprofen arginate, salt of S(+)-Ibuprofen with L-arginine], in series [1] (400 mg or 300 mg of S(+)-Ibuprofen versus 800 mg or 600 mg of Ibuprofen, oral), the “increase of S(+)-Ibuprofen maximum plasma concentration over equivalent Ibuprofen salt composition” value is listed as 15-20%. Moreover, in series [1] (in words, versus reference treatment), the “S(+)-Ibuprofen maximum plasma concentration (Cmax) compared with equivalent racemic Ibuprofen treatment” value is “substantially equal”.

For `CC(C)Cc1ccc([C@H](C)C(=O)O)cc1` [S(+)-Ibuprofen, (S)-enantiomer of 2-(4-isobutylphenyl)propionic acid], the “analgesic effect (onset and duration)” value in series [2] was “faster, and consequently a longer, analgesic effect than Ibuprofen”.

Source of the values: US5510385A, “Pharmaceutical compositions containing the salts of S(+)-2-(4-isobutylphenyl)propionic acid with basic aminoacids” (priority 1993, dated 1996).
